Here are results for seven compounds from patent US5061720A, “Substituted-4-thiazolidinone derivatives” (A. H. Robins Company, Inc., priority 1989, dated 1991).

One assay addresses T1, 5-lipoxygenase (Homo sapiens, UniProt P09917).
T1 construct: Polymorphonuclear leukocytes were obtained from whole human blood; endogenous in cells; host or cells: human polymorphonuclear leukocytes from whole blood, stimulated with A23187
T1 sequence (P09917 1-674): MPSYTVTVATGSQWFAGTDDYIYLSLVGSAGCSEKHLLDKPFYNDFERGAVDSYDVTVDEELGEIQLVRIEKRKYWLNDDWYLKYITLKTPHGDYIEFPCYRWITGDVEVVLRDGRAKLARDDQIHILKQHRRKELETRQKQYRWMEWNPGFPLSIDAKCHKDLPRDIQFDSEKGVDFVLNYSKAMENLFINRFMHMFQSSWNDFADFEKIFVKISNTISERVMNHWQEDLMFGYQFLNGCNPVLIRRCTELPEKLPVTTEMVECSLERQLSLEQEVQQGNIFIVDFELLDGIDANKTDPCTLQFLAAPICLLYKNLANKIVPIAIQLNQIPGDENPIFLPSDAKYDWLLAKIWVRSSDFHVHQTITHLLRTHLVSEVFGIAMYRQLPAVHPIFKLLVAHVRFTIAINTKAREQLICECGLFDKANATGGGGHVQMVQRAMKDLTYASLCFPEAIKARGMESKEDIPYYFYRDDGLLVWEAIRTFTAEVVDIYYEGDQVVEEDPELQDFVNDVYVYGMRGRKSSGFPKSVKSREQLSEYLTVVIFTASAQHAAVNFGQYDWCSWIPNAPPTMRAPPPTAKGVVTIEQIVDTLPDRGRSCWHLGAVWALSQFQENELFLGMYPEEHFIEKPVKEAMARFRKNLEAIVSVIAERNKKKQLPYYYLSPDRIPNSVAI
Briefly: 5-Lipoxygenase Assay (production of 5-HETE from arachidonic acid in polymorphonuclear leukocytes stimulated by A23187). The assay is classed as cell-based. Particulars: inhibition of production of 5-HETE, human PMN cells, calcium ionophore A23187, 37° C. The protocol:
The production of 5-HETE from arachidonic acid in human polymorphonuclear leukocytes stimulated by the calcium ionophore A23187 (Calbiochemicals) was measured by reverse phase high pressure liquid chromatography. This procedure is a modification of the procedure of Sun and McGuire, PROSTAGLANDINS, 26, 211-221 (1983). Addition of substances to the test system that inhibit 5-lipoxygenases cause a decrease in the production of 5-HETE and is thus determined in comparison to reference and control articles also added to the reaction system.
Polymorphonuclear leukocytes were obtained from whole human blood by the procedure of Skoog and Beck, BLOOD, 11, 436-454 (1956). […] The tube is incubated for an additional 10 min at 37° C. and the incubations terminated by addition of 1.5 mL of acetone and cooling to 0° C. 13-Hydroxyoctadecatrienoic acid (13-HODT) (5 μL of 0.2 mM methanolic solution) is added for an internal reference standard. The tube is stored at -20° C. under argon for 4-18 hr. Centrifugation at 1000×g for 10 min causes protein precipitate to form a pellet. The acetone layer is evaporated under a stream of nitrogen and the resultant lipid residue containing the arachidonic acid metabolites and 13-HODT is dissolved in 0.5 mL of methanol and stored at -20° C. until analyzed by high-pressure liquid chromatography (HPLC).
For analysis, a 150-μL aliquot of the methanol solution is evaporated under a stream of argon. The residue is reconstituted with 100 μL of a 1:1 methanol-water mixture and sonified for 15-20 seconds and the mixture analyzed by HPLC (C18 reversed phase Econophere column, methanol:water:acetic acid 79:25:0.2 v/v/v used for elution). Test, reference, and control articles are evaluated in duplicate. The inhibition is reported as that concentration which will inhibit by 50% the production of 5-HETE.

The subject of the next assay is guinea pig skin. Briefly: UV-Erythema in Guinea Pigs. It is filed as in vivo. Further details: key: +: active; -: inactive. Particulars: topical, 50 μL of cream with 1.0 mg test article per 1 g, immediately after UV exposure; active = composite score significantly lower than control, Dunnett's t-test p≤0.05. The method, then: I. Preparation of Formulation (cream)
All drugs tested were prepared by thoroughly incorporating 1.0 mg of the test article into 1 g of a pH 7.0 cream vehicle of the following composition.
methyl glucose sesquistearate 1.6%
methyl gluceth-20 sesquistearate 2.4%
emulsifying wax, N.F. 5.0%
mineral oil (heavy), U.S.P. 1.0%
white petrolatum, U.S.P. 5.0%
stearic acid, U.S.P. 2.5%
sodium benzoate, N.F. 0.1%
magnesium aluminum silicate 1.5%
deionized water, pH 7.0 64.8%
The preparations were packed into 1-cc plastic syringes.
II. Pharmacological Assay
The backs of female, English short hair guinea pigs (250-500 g) were shaved and depilated with Nair®. Control and treated groups each consisted of 5 animals, and selection of the animals and the control and treatment groups was achieved by random procedures. A rubber sheet with three one-half inch holes spaced one-half inch apart was draped over backs of the guinea pigs. The guinea pigs were then exposed to ultraviolet (UV) light (Hanovia Model 10, ~650-800 μW/cm^2) for 15 seconds by holding the animals against the light source. Fifty μL of the test drug or reference drug (indomethacin or bromfenac) preparation were immediately rubbed onto the skin, either on the area exposed to UV light or to an area adjacent to the UV light exposed skin. The degree of erythema for each exposed area was scored at various times following exposure according to the following scale:
1=slight redness with faint outline
2=moderate to marked redness with distinct outline
The score was totaled for each guinea pig (maximum score is 6). The Dunnett's t-test was used to determine significant (p≤0.05) differences from the control (placebo treated) group.

In general, IC50 refers to the concentration needed to halve the response being measured. Consider `CCCC[C@@H]1S[C@@H](c2cccc(Oc3ccccc3)c2)NC1=O` (relative stereo) [Example 83, 5-Butyl-2-(3-phenoxyphenyl)-4-thiazolidinone], for which, at 5-lipoxygenase, the IC50 is < 10 µM. The “U.V. erythema (+ = active, - = inactive)” value in the assay on guinea pig skin is listed as “-”.
The corresponding values for `CCCCC1SC(c2cccc(Oc3ccccc3)c2)N(CCCCc2ccccc2)C1=O` (centres unmarked) [Example 1, 5-Butyl-2-(3-phenoxyphenyl)-3-(4-phenylbutyl)-4-thiazolidinone] are > 100 µM and “+”.
Regarding `CC1SC(c2cccc(Oc3ccccc3)c2)N(CCCCc2ccccc2)C1=O` (centres unmarked) [Example 7, 5-Methyl-2-(3-phenoxyphenyl)-3-(4-phenylbutyl)-4-thiazolidinone], the IC50 on 5-lipoxygenase was < 20 µM. For the same compound, the “U.V. erythema (+ = active, - = inactive)” value in the assay on guinea pig skin is “+”.
Turning to `CCCC[C@@H]1S[C@H](c2cccc(Oc3ccccc3)c2)N(CCCCCC(=O)OCC)C1=O` (relative stereo) [Example 51], at 5-lipoxygenase, the half-inhibitory concentration (IC50) is ~15 µM. Also, the “U.V. erythema (+ = active, - = inactive)” value with guinea pig skin is “-”.
For `CCCCC1SC(c2cccc(C(=O)c3ccccc3)c2)N(CCCCc2ccccc2)C1=O` (centres unmarked) [Example 8, 2-(3-Benzoylphenyl)-5-butyl-3-(4-phenylbutyl)-4-thiazolidinone], the IC50 on 5-lipoxygenase was ~100 µM. The “U.V. erythema (+ = active, - = inactive)” value with guinea pig skin is “+”.
The corresponding values for `CCCCC1SC(c2cccc(Oc3ccccc3)c2)N(CCc2ccccc2)C1=O` (centres unmarked) [Example 17, 5-Butyl-2-(3-phenoxyphenyl)-3-(2-phenylethyl)-4-thiazolidinone] are 10 µM and “-”.
The corresponding values for `CCCCC1SC(c2cccc(Oc3ccccc3)c2)N(CCCCC(=O)O)C1=O` (centres unmarked) [Example 45, 5-Butyl-4-oxo-2-(3-phenoxyphenyl)-3-thiazolidinepentanoic acid] are ~15 µM and “+”.
